# Target: MRGPRX4 (Homo sapiens, UniProt Q96LA9)
# Assay: MRGPR X4 antagonist activity, IP-One Gq HTRF assay in stably transfected HEK cells (versus agonist bilirubin, deoxycholic acid, conjugated bilirubin, urobilin, obeticholic acid or BAR502)
# Type: cell-based
# Design: expressed in transfected cells; host or cells: HEK cells, stably transfected
# Details: versus 10 μM Bilirubin agonist; HEK cells expressing human MRGPR X4; read-out: MRGPR4 Antagonist Activity
# Summary of the method: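 Stably transfected HEK cells expressing human MRGPR X4, seeded overnight, given compounds as 10-point 1:3 curves from 10 uM final top, incubated 1 h at 37° C then 30 min at room temperature. IP-1 measured by IP-One Gq HTRF. IC50 derived from the HTRF ratio.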
# Chain of MRGPRX4 (Q96LA9 whole entry): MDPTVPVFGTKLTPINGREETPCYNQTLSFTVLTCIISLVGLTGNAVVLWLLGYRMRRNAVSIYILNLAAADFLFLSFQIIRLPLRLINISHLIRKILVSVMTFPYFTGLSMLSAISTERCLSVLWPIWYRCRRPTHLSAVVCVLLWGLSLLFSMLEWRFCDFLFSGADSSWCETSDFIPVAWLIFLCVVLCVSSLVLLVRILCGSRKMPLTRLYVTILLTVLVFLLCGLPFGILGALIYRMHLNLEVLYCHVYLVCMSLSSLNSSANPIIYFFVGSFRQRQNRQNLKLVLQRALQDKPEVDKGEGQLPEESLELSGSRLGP
row,Structure (SMILES),IC50 [µM]
1,"C#Cc1cc(C(F)(F)F)ccc1OCc1cccc(C(=O)O)c1F [Compound 36-1, 3-((2-ethynyl-4-(trifluoromethyl)phenoxy)methyl)-2-fluorobenzoic acid]",0.5 to 1
2,"CCc1c(COc2ccc(C(F)(F)F)cc2Cl)cccc1C(=O)O [Compound 37-1, 3-((2-chloro-4-(trifluoromethyl)phenoxy)methyl)-2-ethylbenzoic acid]",1 to 2.5
3,"CN(C)c1cc(COc2ccc(C(F)(F)F)cc2Cl)cc(C(=O)O)c1 [Compound 38-1, 3-((2-chloro-4-(trifluoromethyl)phenoxy)methyl)-5-(dimethylamino)benzoic acid]",0.1 to 0.5
4,"CCCc1cc(COc2ccc(C(F)(F)F)cc2Cl)nc(C(=O)O)c1 [Compound 39-1, 6-((2-chloro-4-(trifluoromethyl)phenoxy)methyl)-4-propylpicolinic acid]",< 0.1
5,"O=S(=O)(O)c1cccc(COc2ccc(C(F)(F)F)cc2Cl)c1 [Compound 40-1, 3-((2-chloro-4-(trifluoromethyl)phenoxy)methyl)benzenesulfonic acid]",0.5 to 1
6,"Cc1cc(COc2ccc3ccccc3c2)nc(C(=O)O)c1 [Compound 41-1, 4-methyl-6-((naphthalen-2-yloxy)methyl)picolinic acid]",< 0.1
7,Cc1cc(COc2ccc(C(F)(F)F)cc2Cl)nc(C(=O)O)c1 [Compound 41-2],< 0.1
8,"CCc1cc(COc2ccc3ccccc3c2)nc(C(=O)O)c1 [Compound 42-1, 4-ethyl-6-((naphthalen-2-yloxy)methyl)picolinic acid]",< 0.1
9,CCc1cc(COc2ccc(Cl)c(Cl)c2Cl)nc(C(=O)O)c1 [Compound 42-2],< 0.1
10,"N#Cc1cc(COc2ccc(C(F)(F)F)cc2Cl)nc(C(=O)O)c1 [Compound 43-1, 6-((2-chloro-4-(trifluoromethyl)phenoxy)methyl)-4-cyano-pyridine-2-carboxylic acid]",< 0.1
11,"NC(=O)c1cccc(COc2ccc(C(F)(F)F)cc2Cl)c1 [Compound 45-1, 3-((2-chloro-4-(trifluoromethyl)phenoxy)methyl)benzamide]",0.1 to 0.5
12,"FC(F)(F)c1ccc(OCc2cccc(-c3nc[nH]n3)c2)c(Cl)c1 [Compound 45-2, 3-(3-((2-chloro-4-(trifluoromethyl)phenoxy)methyl)phenyl)-1H-1,2,4-triazole]",0.5 to 1
13,"FC(F)(F)c1ccc(OCc2cccc(-c3ncc[nH]3)c2)c(Cl)c1 [Compound 46-1, 2-(3-((2-chloro-4-(trifluoromethyl)phenoxy)methyl)phenyl)-1H-imidazole]",0.1 to 0.5
14,"FC(F)(F)c1ccc(OCc2cccc(-c3cnc[nH]3)c2)c(Cl)c1 [Compound 47-1, 5-(3-((2-chloro-4-(trifluoromethyl)phenoxy)methyl)phenyl)-1H-imidazole]",0.5 to 1
15,"FC(F)(F)c1ccc(OCc2cccc(-c3cn[nH]n3)c2)c(Cl)c1 [Compound 48-1, 4-(3-((2-chloro-4-(trifluoromethyl)phenoxy)methyl)phenyl)-2H-1,2,3-triazole]",1 to 2.5
16,"Cc1noc(-c2cccc(COc3ccc(C(F)(F)F)cc3Cl)c2)n1 [Compound 49-1, 5-(3-((2-chloro-4-(trifluoromethyl)phenoxy)methyl)phenyl)-3-methyl-1,2,4-oxadiazole]",> 2.5
17,"FC(F)c1cccc(COc2ccc(C(F)(F)F)cc2Cl)c1 [Compound 50-1, 2-chloro-1-((3-(difluoromethyl)benzyl)oxy)-4-(trifluoromethyl)benzene]",1 to 2.5
18,"O=C(NCc1ccccc1)c1cccc(COc2ccc(C(F)(F)F)cc2Cl)c1 [Compound 52-1, N-benzyl-3-((2-chloro-4-(trifluoromethyl)phenoxy)methyl)benzamide]",0.1 to 0.5
19,O=C(c1ccc(COc2ccc(C(F)(F)F)cc2Cl)cc1)N1CC2(COC2)C1 [Compound 52-2],> 2.5
20,O=C(NCS(=O)(=O)O)c1ccc(COc2ccc(C(F)(F)F)cc2Cl)cc1 [Compound 52-3],0.1 to 0.5
21,O=C(c1ccc(COc2ccc(C(F)(F)F)cc2Cl)cc1)N1CCC2(COC2)C1 [Compound 52-4],1 to 2.5
22,O=C(NCCS(=O)(=O)O)c1ccc(COc2ccc(C(F)(F)F)cc2Cl)cc1 [Compound 52-5],0.1 to 0.5
23,N#CCNC(=O)c1ccc(COc2ccc(C(F)(F)F)cc2Cl)cc1 [Compound 52-6],0.1 to 0.5

row,Structure (SMILES),IC50 [µM]
1,CCCCNC(=O)c1cccc(COc2ccc(C(F)(F)F)cc2Cl)c1 [Compound 52-7],0.1 to 0.5
2,CC(C)NC(=O)c1cccc(COc2ccc(C(F)(F)F)cc2Cl)c1 [Compound 52-8],0.1 to 0.5
3,COCCNC(=O)c1cccc(COc2ccc(C(F)(F)F)cc2Cl)c1 [Compound 52-9],0.5 to 1
4,CCNC(=O)c1cccc(COc2ccc(C(F)(F)F)cc2Cl)c1 [Compound 52-10],0.1 to 0.5
5,O=C(Nc1ccccc1)c1cccc(COc2ccc(C(F)(F)F)cc2Cl)c1 [Compound 52-11],0.1 to 0.5
6,O=C(NCCCO)c1cccc(COc2ccc(C(F)(F)F)cc2Cl)c1 [Compound 52-12],0.1 to 0.5
7,COCCCNC(=O)c1cccc(COc2ccc(C(F)(F)F)cc2Cl)c1 [Compound 52-13],< 0.1
8,COC1CCN(C(=O)c2cccc(COc3ccc(C(F)(F)F)cc3Cl)c2)CC1 [Compound 52-14],1 to 2.5
9,O=C(N[C@H]1CC[C@H](O)CC1)c1cccc(COc2ccc(C(F)(F)F)cc2Cl)c1 [Compound 52-15],0.5 to 1
10,O=C(NCCO)c1cccc(COc2ccc(C(F)(F)F)cc2Cl)c1 [Compound 52-16],0.1 to 0.5
11,CN(C)CCNC(=O)c1cccc(COc2ccc(C(F)(F)F)cc2Cl)c1 [Compound 52-17],0.5 to 1
12,O=C(c1cccc(COc2ccc(C(F)(F)F)cc2Cl)c1)N1CC(O)C1 [Compound 52-18],0.5 to 1
13,O=C(NC1CCCC(O)C1)c1cccc(COc2ccc(C(F)(F)F)cc2Cl)c1 (centres unmarked) [Compound 52-19],0.5 to 1
14,CS(=O)(=O)NC(=O)c1cccc(COc2ccc(C(F)(F)F)cc2Cl)c1 [Compound 52-20],0.1 to 0.5
15,O=C(c1cccc(COc2ccc(C(F)(F)F)cc2Cl)c1)N1CCCC(O)C1 (centres unmarked) [Compound 52-21],0.5 to 1
16,NC(=O)CNC(=O)c1cccc(COc2ccc(C(F)(F)F)cc2Cl)c1 [Compound 52-22],0.1 to 0.5
17,O=C(NC1CCCC1)c1cccc(COc2ccc(C(F)(F)F)cc2Cl)c1 [Compound 52-23],0.1 to 0.5
18,O=C(NC1CCC1)c1cccc(COc2ccc(C(F)(F)F)cc2Cl)c1 [Compound 52-24],0.1 to 0.5
19,O=C(c1cccc(COc2ccc(C(F)(F)F)cc2Cl)c1)N1CCOC1 [Compound 52-25],0.5 to 1
20,CNC(=O)c1cccc(COc2ccc(C(F)(F)F)cc2Cl)c1 [Compound 52-26],0.1 to 0.5
21,CNC(=O)CNC(=O)c1cccc(COc2ccc(C(F)(F)F)cc2Cl)c1 [Compound 52-27],0.5 to 1
22,"CNCCNC(=O)c1cccc(COc2ccc(C(F)(F)F)cc2Cl)c1 [Compound 53-1, 3-((2-chloro-4-(trifluoromethyl)phenoxy)methyl)-N-(2-(methylamino)ethyl)benzamide]",0.5 to 1
23,NCCNC(=O)c1cccc(COc2ccc(C(F)(F)F)cc2Cl)c1 [Compound 53-2],1 to 2.5

# Second part, the compound after the results:
row,IC50 [µM],Structure (SMILES)
1,0.1 to 0.5,"CC(C)[C@H](NC(=O)c1cccc(COc2ccc(C(F)(F)F)cc2Cl)c1)C(=O)O [Compound 54-1, (3-((2-chloro-4-(trifluoromethyl)phenoxy)methyl)benzoyl)-L-valine]"
2,< 0.1,O=C(O)CNC(=O)c1cccc(COc2ccc(C(F)(F)F)cc2Cl)c1 [Compound 54-2]
3,0.1 to 0.5,CC(C)(NC(=O)c1cccc(COc2ccc(C(F)(F)F)cc2Cl)c1)C(=O)O [Compound 54-3]
4,0.1 to 0.5,O=C(N[C@@H](Cc1c[nH]c2ccccc12)C(=O)O)c1cccc(COc2ccc(C(F)(F)F)cc2Cl)c1 [Compound 54-5]
5,0.1 to 0.5,O=C(N[C@@H](Cc1ccc(O)cc1)C(=O)O)c1cccc(COc2ccc(C(F)(F)F)cc2Cl)c1 [Compound 54-7]
6,0.5 to 1,C[C@@H](O)[C@H](NC(=O)c1cccc(COc2ccc(C(F)(F)F)cc2Cl)c1)C(=O)O [Compound 54-8]
7,0.1 to 0.5,O=C(N[C@@H](CO)C(=O)O)c1cccc(COc2ccc(C(F)(F)F)cc2Cl)c1 [Compound 54-9]
8,0.5 to 1,O=C(O)c1ccc(NC(=O)c2cccc(COc3ccc(C(F)(F)F)cc3Cl)c2)cc1 [Compound 54-10]
9,> 2.5,O=C(O)c1cccc(NC(=O)c2cccc(COc3ccc(C(F)(F)F)cc3Cl)c2)c1 [Compound 54-11]
10,0.1 to 0.5,"NC(=O)C[C@H](NC(=O)c1cccc(COc2ccc(C(F)(F)F)cc2Cl)c1)C(=O)O [Compound 55-1, (3-((2-chloro-4-(trifluoromethyl)phenoxy)methyl)benzoyl)-L-asparagine]"
11,0.5 to 1,O=C(N[C@@H](Cc1c[nH]cn1)C(=O)O)c1cccc(COc2ccc(C(F)(F)F)cc2Cl)c1 [Compound 55-2]
12,0.1 to 0.5,NC(=O)CC[C@H](NC(=O)c1cccc(COc2ccc(C(F)(F)F)cc2Cl)c1)C(=O)O [Compound 55-3]
13,0.1 to 0.5,"CCOC(=O)c1cccc(COc2ccc(C(F)(F)F)cc2Cl)c1F [Compound 56-1, ethyl 3-((2-chloro-4-(trifluoromethyl)phenoxy)methyl)-2-fluorobenzoate]"
14,< 0.1,CCOC(=O)c1cccc(COc2ccc(C(F)(F)F)cc2Cl)n1 [Compound 56-2]
15,< 0.1,"Cc1cc(CNc2ccc(C(F)(F)F)cc2Cl)nc(C(=O)O)c1 [Compound 57-1, 6-(((2-chloro-4-(trifluoromethyl)phenyl)amino)methyl)-4-methylpicolinic acid]"
16,0.5 to 1,"O=C1CC(c2cccc(COc3ccc(C(F)(F)F)cc3Cl)c2)N1 (centres unmarked) [Compound 59-1, 4-(3-((2-chloro-4-(trifluoromethyl)phenoxy)methyl)phenyl)azetidin-2-one]"

# From patent US11840521B2, “Modulators of Mas-related G-protein receptor X4 and related products and methods” (Escient Pharmaceuticals, Inc., priority 2019, dated 2023)
